pIC50: −log10 of the molar value. Where two headings read alike, the source gives them in different places.
Assays:
[1] = target: rAR (rat lens aldose reductase) (Rattus norvegicus, UniProt P07943); assay: Assay for rAR inhibitory activity (NADPH absorption decrease at 340 nm, DL-glyceraldehyde substrate); type: biochemical; settings: for rAR inhibitory activity (in words): isolated compound; for pIC50: read-out: IC50 on rAR (isolated compounds)
Experimental: Crude rAR was prepared as follows. Rat lenses were removed from closed male Sprague-Dawley rats weighing 250–280 g and frozen until required. The rat lens homogenate was prepared according to Hayman and Kinoshita with some modifications [20, 21]. […] The partially purified material was separated into 1.0 mL aliquots and stored at 40°C. rAR activity was assayed spectrophotometrically by measuring the decrease in NADPH absorption at 340 nm over a 4 min period with dl-glyceraldehyde substrate. Each 1.0 mL cuvette contained equal units of the enzyme, 0.10 M sodium phosphate buffer (pH 6.2), and 0.3 mM NADPH, with or without 10 mM substrate and an inhibitor [22, 23].

rAR (aldose reductase) = target: T1, rAR (aldose reductase) (Rattus norvegicus, UniProt P07943); assay: HPLC microfractionation combined with 96-well enzyme assay for rAR inhibition; type: biochemical; settings: HPLC microfractions of EtOAc soluble fraction (10 μL of 10 mg/mL injected), 96-well plate; hit limit 18.49%
T1 construct: The rat lens homogenate was prepared according to Hayman and Kinoshita with some modifications; from tissue; host or cells: rat lens (male Sprague-Dawley rats)
Experimental: An automated fraction collector (Foxy 200; ISCO, Lincoln, NE, USA) coupled with HPLC equipment (Thermo Electron Spectra HPLC system; Thermo Separation Products, San Jose, CA, USA) was used to separate and collect compounds from extracts directly into 96-well plates (Nunc, Roskilde, Denmark) at 0.4 mL/well (Figure 1). […] The mobile phase, consisting of acetonitrile (ACN) and 0.1% aqueous trifluoroacetic acid (TFA), was used at a flow rate of 0.8 mL/min. The gradient elution program was 7.5–26.5% B (0–20 min), 26.5% B (20–30 min), 26.5–36% B (30–40 min), and 36–100% B (40–45 min). Injection volume was 10 μL at sample concentration 10 mg/mL and detection wavelength 280 nm. After collection, all fractions were evaporated to dryness using an EZ-2 plus evaporator (Gene Vac Ltd., Ipswich, UK).
The effect on rAR inhibitory activity (%) was calculated as the change in absorbance in a sample well versus the change in absorbance in a blank well (average, n = 12). Spontaneous hydrolysis was subtracted from the reaction rate. The hit limit was set at 3 standard deviations (SD) from the minimum AR inhibitory activity. Z′-factor, signal-to-background ratio (S/B), and signal-to-noise ratio(S/N) were used to evaluate the quality of the test: Z′ = 1[(3 × SDs + 3 × SDb)/|X s X b|], S/B = X s/X b, and S/N = (X s X b)/(SDs ^2 + SDb ^2)^1/2; X s and SDs are average and standard deviation of the signal, that is, absorption detected at the 8th measurement point in blank wells (n = 12) after adding the enzyme; X b and SDb are average and SD of the background, that is, absorption at the first measurement point in blank wells (n = 12) after adding the enzyme.
Crude rAR was prepared as follows. Rat lenses were removed from […] male Sprague-Dawley rats weighing 250–280 g and frozen until required. The rat lens homogenate was prepared according to Hayman and Kinoshita with some modifications. A partially purified enzyme with a specific activity of 6.5 U/mg was routinely used to test enzyme inhibition. The partially purified material was separated into 1.0 mL aliquots and stored at […]. rAR activity was assayed spectrophotometrically by measuring the decrease in NADPH absorption at 340 nm over a 4 min period with dl-glyceraldehyde substrate. Each 1.0 mL cuvette contained equal units of the enzyme, 0.10 M sodium phosphate buffer (pH 6.2), and 0.3 mM NADPH, with or without 10 mM substrate and an inhibitor [22, 23].

Row | Compound | rAR inhibitory activity (in words) [1] | rAR inhibitory activity in the corresponding wells (rAR (aldose reductase)) | pIC50 [1] | pIC50 ([1]; concentration at 50% inhibition, crude rat lens AR, pH 6.2)
1 | O=C(O)c1ccc(O)c(O)c1 [Compound 1, protocatechuic acid] | did not exhibit inhibitory activity | 20.46% | – | –
2 | O=C(/C=C/c1ccc(O)c(O)c1)O[C@@H]1C[C@](O)(C(=O)O)C[C@@H](O)[C@H]1O [Compound 2, chlorogenic acid] | – | 34.50% | 5.50 | –
3 | O=C(O)/C=C/c1ccc(O)c(O)c1 [Compound 3, caffeic acid] | weak inhibitory activity | 21.31% | – | –
4 | O=C(/C=C/c1ccc(O)c(O)c1)O[C@H](Cc1ccc(O)c(O)c1)C(=O)O [Compound 4, rosmarinic acid] | – | 53.31% | – | 5.56
5 | O=c1cc(-c2ccc(O)c(O)c2)oc2cc(O)cc(O)c12 [Compound 5, luteolin] | – | 29.46% | – | –
6 | COC(=O)[C@@H](Cc1ccc(O)c(O)c1)OC(=O)/C=C/c1ccc(O)c(O)c1 [Compound 6, methyl rosmarinic acid] | – | 22.94% | 5.39 | –
